Active and inactive are the calls of the source. The calls are words filed in the database; no cut-off is given here.
Key:
[1] = target: Sodium-dependent noradrenaline transporter (Homo sapiens) (UniProt P23975); assay: Inhibition of NET PDSP analysis
[2] = target: Sodium-dependent serotonin transporter (Homo sapiens) (UniProt P31645); assay: Inhibition of SERT PDSP analysis; set-up: scale not given: the % may be the effect or the level left
Mus musculus [3] = organism: Mus musculus; assay: Effect on behavioral activity in Albino mouse assessed as inhibition of diazepam-induced anesthesia at 0.2 ml/10 g by hippocratic screen; format: functional, organism-based
Mus musculus [4] = organism: Mus musculus; assay: Effect on behavioral activity in Albino mouse assessed as inhibition of diazepam-induced loss of righting reflex at 0.2 ml/10 g after 2 hrs by hippocratic screen; format: functional, organism-based
Mus musculus [5] = organism: Mus musculus; assay: CNS toxicity in Albino mouse assessed as decrease in motor activity at 0.2 ml/10 g by hippocratic screen; format: organism-based; settings: in vivo
Mus musculus [6] = organism: Mus musculus; assay: CNS toxicity in Albino mouse assessed as change in respiratory rate at 0.2 ml/10 g by hippocratic screen; format: organism-based; settings: in vivo
Mus musculus [7] = assay: CNS toxicity in Albino mouse assessed as anesthetic response at 0.2 ml/10 g by hippocratic screen; format: organism-based; settings: in vivo
Mus musculus [8] = organism: Mus musculus; assay: Effect on behavioral activity in Albino mouse assessed as inhibition of diazepam-induced decrease in respiratory rate at 0.2 ml/10 g by hippocratic screen; format: functional, organism-based
Mus musculus [9] = organism: Mus musculus; assay: CNS toxicity in Albino mouse assessed as loss of screen grip at 0.2 ml/10 g by hippocratic screen; format: organism-based; settings: in vivo
Mus musculus [10] = organism: Mus musculus; assay: Effect on behavioral activity in Albino mouse assessed as inhibition of diazepam-induced loss of righting reflex at 0.2 ml/10 g after 1 hr by hippocratic screen; format: functional, organism-based
Mus musculus [11] = organism: Mus musculus; assay: CNS toxicity in Albino mouse assessed as loss of righting reflex at 0.2 ml/10 g by hippocratic screen; format: organism-based; settings: in vivo
Mus musculus [12] = organism: Mus musculus; assay: Effect on behavioral activity in Albino mouse assessed as inhibition of diazepam-induced pinnal reflex at 0.2 ml/10 g by hippocratic screen; format: functional, organism-based
Mus musculus [13] = organism: Mus musculus; assay: Effect on behavioral activity in Albino mouse assessed as inhibition of diazepam-induced ataxia at 0.2 ml/10 g after 5 mins by hippocratic screen; format: functional, organism-based
Mus musculus [14] = organism: Mus musculus; assay: CNS toxicity in Albino mouse assessed as tremors at 0.2 ml/10 g by hippocratic screen; format: organism-based; settings: in vivo
Mus musculus [15] = organism: Mus musculus; assay: CNS toxicity in Albino mouse assessed as startle reaction at 0.2 ml/10 g by hippocratic screen; format: organism-based; settings: in vivo
Mus musculus [16] = organism: Mus musculus; assay: CNS toxicity in Albino mouse assessed as paralysis at 0.2 ml/10 g by hippocratic screen; format: organism-based; settings: in vivo
Mus musculus [17] = organism: Mus musculus; assay: CNS toxicity in Albino mouse assessed as ataxia at 0.2 ml/10 g by hippocratic screen; format: organism-based; settings: in vivo
Mus musculus [18] = organism: Mus musculus; assay: CNS toxicity in Albino mouse assessed as loss of analgesic activity at 0.2 ml/10 g by hippocratic screen; format: organism-based; settings: in vivo
Mus musculus [19] = organism: Mus musculus; assay: Effect on behavioral activity in Albino mouse assessed as inhibition of diazepam-induced loss of analgesia at 0.2 ml/10 g by hippocratic screen; format: functional, organism-based
Mus musculus [20] = organism: Mus musculus; assay: Effect on behavioral activity in Albino mouse assessed as inhibition of diazepam-induced tremors at 0.2 ml/10 g by hippocratic screen; format: functional, organism-based
Mus musculus [21] = organism: Mus musculus; assay: CNS toxicity in Albino mouse assessed as pinnal reflex at 0.2 ml/10 g by hippocratic screen; format: organism-based; settings: in vivo
Mus musculus [22] = organism: Mus musculus; assay: Effect on behavioral activity in Albino mouse assessed as inhibition of diazepam-induced startle reaction at 0.2 ml/10 g by hippocratic screen; format: functional, organism-based
Mus musculus [23] = organism: Mus musculus; assay: Effect on behavioral activity in Albino mouse assessed as inhibition of diazepam-induced paralysis at 0.2 ml/10 g by hippocratic screen; format: functional, organism-based
Mus musculus [24] = organism: Mus musculus; assay: Effect on behavioral activity in Albino mouse assessed as inhibition of diazepam-induced loss of screen grip at 0.2 ml/10 g by hippocratic screen; format: functional, organism-based
Mus musculus [25] = organism: Mus musculus; assay: Effect on behavioral activity in Albino mouse assessed as inhibition of diazepam-induced decrease in motor activity at 0.2 ml/10 g for 10 to 15 mins by hippocratic screen; format: functional, organism-based

Sodium-dependent serotonin transporter (Homo sapiens), sequence (P31645 whole entry, looked up): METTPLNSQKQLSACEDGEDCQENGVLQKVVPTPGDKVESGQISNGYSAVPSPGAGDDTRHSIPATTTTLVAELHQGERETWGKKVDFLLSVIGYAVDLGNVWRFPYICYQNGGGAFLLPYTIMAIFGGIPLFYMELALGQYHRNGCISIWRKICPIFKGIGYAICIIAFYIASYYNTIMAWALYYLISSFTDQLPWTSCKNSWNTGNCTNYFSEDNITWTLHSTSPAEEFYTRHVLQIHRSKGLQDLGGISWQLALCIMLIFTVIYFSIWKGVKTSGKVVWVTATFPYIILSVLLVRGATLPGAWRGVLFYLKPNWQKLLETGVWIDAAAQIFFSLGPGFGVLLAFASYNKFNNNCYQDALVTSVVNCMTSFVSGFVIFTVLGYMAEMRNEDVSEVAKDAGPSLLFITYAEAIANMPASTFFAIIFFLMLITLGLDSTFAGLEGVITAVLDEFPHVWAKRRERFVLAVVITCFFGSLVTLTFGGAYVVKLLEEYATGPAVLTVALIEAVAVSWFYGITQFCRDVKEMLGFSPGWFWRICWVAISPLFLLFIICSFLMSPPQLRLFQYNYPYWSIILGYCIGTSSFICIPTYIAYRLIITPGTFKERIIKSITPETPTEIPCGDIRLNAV
Sodium-dependent noradrenaline transporter (Homo sapiens), sequence (P23975 whole entry): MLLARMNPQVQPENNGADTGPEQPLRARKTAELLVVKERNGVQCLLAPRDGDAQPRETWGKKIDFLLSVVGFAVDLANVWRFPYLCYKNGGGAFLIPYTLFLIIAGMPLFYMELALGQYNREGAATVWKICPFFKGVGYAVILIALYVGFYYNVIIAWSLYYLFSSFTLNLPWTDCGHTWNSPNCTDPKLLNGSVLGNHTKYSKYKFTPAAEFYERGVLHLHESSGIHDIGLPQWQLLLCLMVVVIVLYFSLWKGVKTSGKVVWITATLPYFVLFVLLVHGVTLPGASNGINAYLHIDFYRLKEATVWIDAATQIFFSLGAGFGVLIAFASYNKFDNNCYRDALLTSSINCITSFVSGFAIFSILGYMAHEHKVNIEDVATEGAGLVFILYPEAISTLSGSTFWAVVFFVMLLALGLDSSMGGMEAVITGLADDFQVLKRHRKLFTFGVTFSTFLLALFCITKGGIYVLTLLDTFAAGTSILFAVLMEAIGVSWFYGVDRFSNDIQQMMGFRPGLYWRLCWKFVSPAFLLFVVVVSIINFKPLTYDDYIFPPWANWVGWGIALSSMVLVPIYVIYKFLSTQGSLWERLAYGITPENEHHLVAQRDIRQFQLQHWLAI

Molecule `NC[C@H](O)c1ccc(O)c(O)c1` has a Ki [1] of over 10 µM.
`NCCc1c[nH]c2ccc(O)cc12` was tested, and the Activity [2] was over 10000%.
In the case of `COc1ccc2c3c(oc2c1)C(=O)Nc1cc(C)cc[n+]1C3.[Cl-]`, the Activity (Mus musculus [3]) is reported as “inactive”, the Activity (Mus musculus [4]) is reported as “inactive” and the Activity (Mus musculus [5]) is reported as “Non-toxic”. For the same molecule, the Activity (Mus musculus [6]) was “Non-toxic”, the Activity (Mus musculus [7]) was “Non-toxic” and the Activity (Mus musculus [8]) was “inactive”. For the same molecule, the Activity (Mus musculus [9]) was “Non-toxic”, the Activity (Mus musculus [10]) was “Active” and the Activity (Mus musculus [11]) was “Non-toxic”. For the same molecule, the Activity (Mus musculus [12]) was “inactive”, the Activity (Mus musculus [13]) was “inactive” and the Activity (Mus musculus [14]) was “Non-toxic”. For the same molecule, the Activity (Mus musculus [15]) was “Non-toxic”, the Activity (Mus musculus [16]) was “Non-toxic” and the Activity (Mus musculus [17]) was “Non-toxic”. For the same molecule, the Activity (Mus musculus [18]) was “Non-toxic”, the Activity (Mus musculus [19]) was “inactive” and the Activity (Mus musculus [20]) was “inactive”. For the same molecule, the Activity (Mus musculus [21]) was “Non-toxic”, the Activity (Mus musculus [22]) was “inactive” and the Activity (Mus musculus [23]) was “inactive”. The Activity (Mus musculus [24]) was “inactive” and the Activity (Mus musculus [25]) was “Active”.

From ChEMBL document CHEMBL1157703, “Synthesis, pharmacological studies and molecular modeling of some tetracyclic 1,3-diazepinium chlorides” (Bioorg Med Chem, 2010)
